Experimental data reported in patent US10576062B2, “Carbamoyloxymethyl triazole cyclohexyl acids as LPA antagonists” (Bristol-Myers Squibb Company, priority 2016, dated 2020).

molecular target: T1, human LPA1 (Homo sapiens, UniProt Q92633); experiment: LPA1 functional antagonist assay (LPA-induced calcium flux); assay type: cell-based; details: human LPA1; read-out: hLPA1 IC50
T1 construct: expressed in transfected cells; host or cells: Chinese hamster ovary (CHO) cells
Outline: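 CHO cells overexpressing human LPA1, loaded with calcium dye 30 min at 37° C, were preincubated 20 min at room temperature with compound (0.08 nM–5 μM, 0.5% DMSO) in HBSS/20 mM HEPES/0.1% fatty acid-free BSA.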

T1 sequence (Q92633 whole entry): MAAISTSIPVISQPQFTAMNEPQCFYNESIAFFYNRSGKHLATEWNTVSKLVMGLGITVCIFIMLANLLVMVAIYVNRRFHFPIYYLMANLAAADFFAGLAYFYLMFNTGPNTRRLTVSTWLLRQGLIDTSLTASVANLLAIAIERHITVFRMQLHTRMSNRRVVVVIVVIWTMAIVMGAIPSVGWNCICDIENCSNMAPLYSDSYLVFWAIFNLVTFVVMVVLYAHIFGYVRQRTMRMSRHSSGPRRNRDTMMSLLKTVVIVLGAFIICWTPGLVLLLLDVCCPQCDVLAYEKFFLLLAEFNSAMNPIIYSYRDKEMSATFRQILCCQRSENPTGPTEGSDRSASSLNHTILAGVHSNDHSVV

SMILES	IC50 [nM]
Cc1nc(-c2nnn(C)c2COC(=O)N2CC3(CCCC3)C2)ccc1O[C@H]1CCC[C@H](C(=O)O)C1 [Example 159, (1S,3S)-3-((6-(5-(((2-azaspiro[3.4]octane-2-carbonyl)oxy)methyl)-1-methyl-1H-1,2,3-triazol-4-yl)-2-methylpyridin-3-yl)oxy)cyclohexane-1-carboxylic acid]	162
Cc1nc(-c2nnn(C)c2COC(=O)N(C)C2CC(C)(C)C2)ccc1O[C@H]1CCC[C@@H](C(=O)O)C1 [Example 160, (1R,3S)-3-((6-(5-((((3,3-dimethylcyclobutyl)(methyl)carbamoyl)oxy)methyl)-1-methyl-1H-1,2,3-triazol-4-yl)-2-methylpyridin-3-yl)oxy)cyclohexane-1-carboxylic acid]	61
Cc1nc(-c2nnn(C)c2COC(=O)N(C)CCC2CC2)ccc1O[C@H]1CCC[C@H](C(=O)O)C1 [Example 162, (1S,3S)-3-((6-(5-((((2-cyclopropylethyl)(methyl)carbamoyl)oxy)methyl)-1-methyl-1H-1,2,3-triazol-4-yl)-2-methylpyridin-3-yl)oxy)cyclohexane-1-carboxylic acid]	34
Cc1nc(-c2nnn(C)c2COC(=O)N2C3CCC2CC3)ccc1O[C@H]1CCC[C@H](C(=O)O)C1 [Example 167, (1S,3S)-3-((6-(5-(((-7-azabicyclo[2.2.1]heptane-7-carbonyl)oxy)methyl)-1-methyl-1H-1,2,3-triazol-4-yl)-2-methylpyridin-3-yl)oxy)cyclohexane-1-carboxylic acid]	317
Cc1nc(-c2nnn(C)c2COC(=O)N(C)C2CC(C)(C)C2)ccc1O[C@H]1CCC[C@H](C(=O)O)C1 [Example 168, (1S,3S)-3-((6-(5-((((3,3-dimethyl-cyclobutyl)(methyl)carbamoyl)oxy)methyl)-1-methyl-1H-1,2,3-triazol-4-yl)-2-methylpyridin-3-yl)oxy)cyclohexane-1-carboxylic acid]	29
Cc1nc(-c2nnn(C)c2COC(=O)N(C)C(C)(C)C)ccc1O[C@H]1CCC[C@H](C(=O)O)C1 [Example 170, (1S,3S)-3-((6-(5-(((tert-butyl(methyl)carbamoyl)oxy)methyl)-1-methyl-1H-1,2,3-triazol-4-yl)-2-methylpyridin-3-yl)oxy)cyclohexane-1-carboxylic acid]	183
Cc1nc(-c2nnn(C)c2COC(=O)N2CCC3(CC2)CC3)ccc1O[C@H]1CCC[C@H](C(=O)O)C1 [Example 171, (1S,3S)-3-((6-(5-(((6-azaspiro[2.5]octane-6-carbonyl)oxy)methyl)-1-methyl-1H-1,2,3-triazol-4-yl)-2-methylpyridin-3-yl)oxy)cyclohexane-1-carboxylic acid]	162
CC(C)=CCN(C)C(=O)OCc1c(-c2ccc(O[C@H]3CCC[C@@H](C(=O)O)C3)c(C)n2)nnn1C [Example 172, (1R,3S)-3-((2-methyl-6-(1-methyl-5-(((methyl(3-methylbut-2-en-1-yl)carbamoyl)oxy)methyl)-1H-1,2,3-triazol-4-yl)pyridin-3-yl)oxy)cyclohexane-1-carboxylic acid]	312
CCCN(C)C(=O)OCc1c(-c2ccc(O[C@H]3CCC[C@H](C(=O)O)C3)cn2)nnn1C [Example 173, (1S,3S)-3-((6-(1-methyl-5-(((methyl(propyl)carbamoyl)oxy)methyl)-1H-1,2,3-triazol-4-yl)pyridin-3-yl)oxy)cyclohexane-1-carboxylic acid]	131
CN(C(=O)OCc1c(-c2ccc(O[C@H]3CCC[C@H](C(=O)O)C3)cn2)nnn1C)C1CCC1 [Example 174, (1S,3S)-3-((6-(5-(((cyclobutyl(methyl)carbamoyl)oxy)methyl)-1-methyl-1H-1,2,3-triazol-4-yl)pyridin-3-yl)oxy)cyclohexane-1-carboxylic acid]	58
Cn1nnc(-c2ccc(O[C@H]3CCC[C@H](C(=O)O)C3)cn2)c1COC(=O)N1CCC2(CCC2)C1 [Example 175, (1S,3S)-3-((6-(5-(((6-azaspiro[3.4]octane-6-carbonyl)oxy)methyl)-1-methyl-1H-1,2,3-triazol-4-yl)pyridin-3-yl)oxy)cyclohexane-1-carboxylic acid]	703
Cn1nnc(-c2ccc(O[C@H]3CCC[C@H](C(=O)O)C3)cn2)c1COC(=O)N1CC2(CCC2)C1 [Example 176, (1S,3S)-3-((6-(5-(((2-azaspiro[3.3]heptane-2-carbonyl)oxy)methyl)-1-methyl-1H-1,2,3-triazol-4-yl)pyridin-3-yl)oxy)cyclohexane-1-carboxylic acid]	400
CC(C)=CCN(C)C(=O)OCc1c(-c2ccc(O[C@H]3CCC[C@H](C(=O)O)C3)c(C)n2)nnn1C [Example 177, (1S,3S)-3-((2-methyl-6-(1-methyl-5-(((methyl(3-methylbut-2-en-1-yl)carbamoyl)oxy)methyl)-1H-1,2,3-triazol-4-yl)pyridin-3-yl)oxy)cyclohexane-1-carboxylic acid]	21
Cc1nc(-c2nnn(C)c2COC(=O)N(C)C(C)(C)CF)ccc1O[C@H]1CCC[C@H](C(=O)O)C1 [Example 178, (1S,3S)-3-((6-(5-((((1-fluoro-2-methylpropan-2-yl)(methyl)carbamoyl)oxy)methyl)-1-methyl-1H-1,2,3-triazol-4-yl)-2-methyl-pyridin-3-yl)oxy)cyclohexane-1-carboxylic acid]	156
Cc1nc(-c2nnn(C)c2COC(=O)N(C)C2CC3(CC3)C2)ccc1O[C@H]1CCC[C@H](C(=O)O)C1 [Example 179, (1S,3S)-3-((2-methyl-6-(1-methyl-5-(((methyl(spiro[2.3]hexan-5-yl)carbamoyl)oxy)methyl)-1H-1,2,3-triazol-4-yl)pyridin-3-yl)oxy)cyclohexane-1-carboxylic acid]	14
CN(C(=O)OCc1c(-c2ccc(O[C@H]3CCC[C@H](C(=O)O)C3)cn2)nnn1C)C1CC2(CCC2)C1 [Example 180, (1S,3S)-3-((6-(1-methyl-5-(((methyl(spiro[3.3]heptan-2-yl)carbamoyl)oxy)methyl)-1H-1,2,3-triazol-4-yl)pyridin-3-yl)oxy)cyclohexane-1-carboxylic acid]	62
CN(C(=O)OCc1c(-c2ccc(O[C@H]3CCC[C@H](C(=O)O)C3)cn2)nnn1C)C1CC(C)(C)C1 [Example 181, (1S,3S)-3-((6-(5-((((3,3-dimethylcyclobutyl)(methyl)carbamoyl)oxy)methyl)-1-methyl-1H-1,2,3-triazol-4-yl)pyridin-3-yl)oxy)cyclohexane-1-carboxylic acid]	101
CN(C(=O)OCc1c(-c2ccc(O[C@H]3CCC[C@H](C(=O)O)C3)cn2)nnn1C)C1CC2(CC2)C1 [Example 183, (1S,3S)-3-((6-(1-methyl-5-(((methyl(spiro[2.3]hexan-5-yl)carbamoyl)oxy)methyl)-1H-1,2,3-triazol-4-yl)pyridin-3-yl)oxy)cyclohexane-1-carboxylic acid]	20
Cc1nc(-c2nnn(C)c2COC(=O)N(C)CCC(C)(C)F)ccc1O[C@H]1CCC[C@H](C(=O)O)C1 [Example 187, (1S,3S)-3-((6-(5-((((3-fluoro-3-methylbutyl)(methyl)carbamoyl)oxy)methyl)-1-methyl-1H-1,2,3-triazol-4-yl)-2-methylpyridin-3-yl)oxy)cyclohexane-1-carboxylic acid]	50
CN(CCC(C)(C)F)C(=O)OCc1c(-c2ccc(O[C@H]3CCC[C@H](C(=O)O)C3)cn2)nnn1C [Example 188, (1S,3S)-3-((6-(5-((((3-fluoro-3-methylbutyl)(methyl)carbamoyl)oxy)methyl)-1-methyl-1H-1,2,3-triazol-4-yl)pyridin-3-yl)oxy)cyclohexane-1-carboxylic acid]	32
Cc1nc(-c2nnn(C)c2COC(=O)N(C)CC2(F)CCC2)ccc1O[C@H]1CCC[C@H](C(=O)O)C1 [Example 189, (1S,3S)-3-((6-(5-(((((1-fluorocyclobutyl)methyl)(methyl)carbamoyl)oxy)methyl)-1-methyl-1H-1,2,3-triazol-4-yl)-2-methylpyridin-3-yl)oxy)cyclohexane-1-carboxylic acid]	120
Cc1nc(-c2nnn(C)c2COC(=O)N(C)CCCF)ccc1O[C@H]1CCC[C@H](C(=O)O)C1 [Example 190, (1S,3S)-3-((6-(5-((((3-fluoropropyl)(methyl)carbamoyl)oxy)methyl)-1-methyl-1H-1,2,3-triazol-4-yl)-2-methylpyridin-3-yl)oxy)cyclohexane-1-carboxylic acid]	81
Cc1nc(-c2nnn(C)c2COC(=O)NCCCCF)ccc1O[C@H]1CCC[C@H](C(=O)O)C1 [Example 191, (1S,3S)-3-((6-(5-((((4-fluorobutyl)carbamoyl)oxy)methyl)-1-methyl-1H-1,2,3-triazol-4-yl)-2-methylpyridin-3-yl)oxy)cyclohexane-1-carboxylic acid]	553
Cc1nc(-c2nnn(C)c2COC(=O)N(C)CCCCF)ccc1O[C@H]1CCC[C@H](C(=O)O)C1 [Example 192, (1S,3S)-3-((6-(5-((((4-fluorobutyl)(methyl)carbamoyl)oxy)methyl)-1-methyl-1H-1,2,3-triazol-4-yl)-2-methylpyridin-3-yl)oxy)cyclohexane-1-carboxylic acid]	36

same assay, conditions: read-out: hLPA1 IC50

SMILES	IC50 [nM]
Cc1nc(-c2nnn(C)c2COC(=O)N2CC(C)(C)C2)ccc1O[C@H]1CCC[C@H](C(=O)O)C1 [Example 155, (1S,3S)-3-((6-(5-(((3,3-dimethylazetidine-1-carbonyl)oxy)methyl)-1-methyl-1H-1,2,3-triazol-4-yl)-2-methylpyridin-3-yl)oxy)cyclohexane-1-carboxylic acid]	175
Cc1nc(-c2nnn(C)c2COC(=O)N2CC(C)C2)ccc1O[C@H]1CCC[C@H](C(=O)O)C1 [Example 156, (1S,3S)-3-((2-methyl-6-(1-methyl-5-(((3-methylazetidine-1-carbonyl)oxy)methyl)-1H-1,2,3-triazol-4-yl)pyridin-3-yl)oxy)cyclohexane-1-carboxylic acid]	231
